For series [1] the following is noted: Liquid; for mass density: 101.33 kPa, Vibrating tube method; for vapor or sublimation pressure: Closed cell (Static) method.
Series [2] can be described thus: refractive index (Na D-line) (dimensionless). The conditions noted are these: 101.33 kPa, Liquid, Standard Abbe refractometry.

Numbers after ± are expanded uncertainties.

By mass density is commonly meant mass per unit of volume. As usually defined, the refractive index is a measure of how strongly the sample bends light. For the molecule `CCCCCCC` [heptane], the mass density worked out at 683.8 ± 0.9 kg/m3 in series [1] (293.15 K); 681.6 ± 0.9 kg/m3 in series [1] (295.15 K); 679.9 ± 0.9 kg/m3 in series [1] (297.15 K); 679.1 ± 0.9 kg/m3 in series [1] (298.15 K); 677.1 ± 0.9 kg/m3 in series [1] (300.4 K). In addition, the refractive index in series [2] (293.15 K) is listed as 1.3878 ± 0.0007; in series [2] (298.15 K), 1.3852 ± 0.0007.

By vapor or sublimation pressure is commonly meant the equilibrium pressure above the liquid or solid. Regarding `FC(F)(F)C(F)(F)F` [hexafluoroethane], the “vapor or sublimation pressure” value in series [1] (273.06 K) is reported as 1839 ± 6 kPa; in series [1] (278.07 K), 2100 ± 6 kPa; in series [1] (283.07 K) it was 2388 ± 7 kPa; in series [1] (288.07 K), 2701 ± 7 kPa; in series [1] (292.07 K), 2972 ± 8 kPa.

These data come from the NIST ThermoML archive (doi:10.1016/j.jct.2016.06.031).
